The melting point is the temperature of the solid-liquid transition. On to `O=C(O)c1cc(Cl)cc(I)c1O`, for which the melting point lay within 160 to 163 °C.

On to `COc1nc(C)c(N2CCCn3c2nc2c(C#N)ccc(C(OC(F)F)C(F)(F)F)c23)c(C)n1` (configuration not stated), for which the melting point is 250 to 252 °C.

Take `O=C(Nc1nc(C(C(=O)O)=C(Cl)C(=O)OCc2ccccc2)cs1)OCc1ccccc1`: the melting point lay within 173 to 174 °C.

On to `CN1CCCC1=NC(=O)Nc1ccc(Br)cc1`, for which the melting point was 134 to 136 °C.

Take `O=[N+]([O-])c1ccc2[nH]cc(C3=CCNCC3)c2c1`: the melting point is 250 °C.

In turn, `CC(C)(C)CC(=Cc1ccc(Cl)cc1)Cn1cncn1` showed a melting point of 81 to 84 °C.

In the case of `COc1ncccc1-c1ccc(OC2SCC(O)C(O)C2O)cn1` (configuration not stated), the melting point amounted to 127 °C.

Take `O=c1[nH]c2ccccc2n1CCCN1CCNCC1`: the melting point came out at 158 °C.

The compound `CCN(CC)CCNC(=O)c1cc(Cl)c(N)cc1OCCCCS(C)=O` (configuration not stated) yielded a melting point of 80 to 83 °C.

For `CCCCCS(=O)(=O)NC(=O)/C=C/c1ccc(OCCOC)cc1NC(=O)c1ccc(F)cc1F`, the melting point lay in the range of 140 to 141 °C.

In the case of `COC(=O)N(CC(=O)Nc1ccc(S(N)(=O)=O)cc1)c1ccccc1`, the melting point lay in the range of 196 to 199 °C.

Turning to `CCOCc1nc2c(N)nc3ccccc3c2n1N(C)C`, the melting point fell in the range of 213 to 215 °C.

`CCc1cc(C=Cc2ccccc2O)on1` showed a melting point of 175 to 176 °C.

Compound `Cc1c(Br)c2ccccn2c1C(=O)c1cc(Cl)c(O)c(Cl)c1` displayed a melting point of 240 °C.

For the compound `Cc1ccc2c3c(ccc2n1)OC[C@H](CN1CCN(c2cccc4c2OCCO4)CC1)O3`, the melting point lay in the range of 154 to 155 °C.

Compound `COc1ccc(-n2nc(NC(=O)N(C)C)cc2-c2ccc(OCCNC(N)=O)cc2)cc1` displayed a melting point of 193 to 196 °C.

Regarding `Cc1ccc(OC(=O)CCCC(=O)OOC(=O)CCCC(=O)Oc2ccc(C)cc2)cc1`, the melting point fell in the range of 24 to 30 °C.

On to `CN(C)CCCn1c(-c2ccc(Br)cc2)cc2c1CCCCC2`, for which the melting point was 69 to 70 °C.

`CCCCCCCCCCCCCCCCCCOc1ccc(C(=O)O)cc1OCCCCCCCCCCCCCCCCCC` came in with a melting point of 94 to 117 °C.

Consider `O=[N+]([O-])c1cnc2ccc(O)cc2c1-c1ccccc1`, for which the melting point fell in the range of 282 to 284 °C.

On to `CC(C)c1nc(C(N)=O)c2n1-c1ccc(Cl)cc1C(c1ccccc1Cl)=NC2`, for which the melting point was in the range of 328 to 330 °C.

In the case of `CSc1nn2c(O)cc(CN(C)C)nc2c1S(=O)(=O)c1ccccc1`, the melting point is over 220 °C.

In turn, `O=C(c1ccccc1)c1nc(Br)c(Br)[nH]1` displayed a melting point of 215 to 217 °C.

For the compound `CN(C=C(S(=O)(=O)c1ccccc1)S(=O)(=O)c1ccccc1)c1ccc(Cl)cn1`, the melting point is 205 to 206 °C.

As for `COc1cc([N+](=O)[O-])c2nccc(C)c2c1OC`, the melting point lay in the range of 123 to 125 °C.

Take `CC(SC1COC(c2ccc(C(=O)Nc3ccc(C#N)c(C#N)c3)cc2)OC1)C(O)(Cn1cncn1)c1ccc(F)cc1F` (configuration not stated): the melting point worked out at 182 °C.

Take `COC(=O)c1ccc(Cn2cc(/C=C/C(=O)N3CCCC3)c3ccc(/C=C/C(=O)N4CCCC4)cc32)c(OC)c1`: the melting point fell in the range of 226 to 228 °C.

As to `Cc1cccc(-n2nccc2-c2nn(-c3cccc(C(F)(F)F)c3)ccc2=O)c1`, the melting point is 142 to 143 °C.

`COC(=O)C1CC(C#N)(c2cccs2)CCC1=O` (configuration not stated) returned a melting point of 76 to 78 °C.

Compound `CCOC(=O)NCc1cccc(-c2ccnc3c(C#N)cnn23)c1` had a melting point of 140 to 142 °C.

`CCn1ncc2c(Cl)c3cc(Br)ccc3nc21` returned a melting point of 117 to 118 °C.

The compound `CN1NC(=O)CSC1=Nc1ccc(Cl)c(Cl)c1` displayed a melting point of 118 to 120 °C.

`Cn1cncc1C(N)(c1ccc(CN)cc1)c1ccc2c(c1)c(-c1cccc(Cl)c1)cc(=O)n2C` (configuration not stated): the melting point came to 150 °C.

The compound `Cc1cc(Br)cc(C(=O)O)c1N` came in with a melting point of 245 °C.

The compound `CC(=O)Oc1ccc(C=CC(=O)C=Cc2ccc(OC(C)=O)c(OC(C)=O)c2)cc1OC(C)=O` returned a melting point of 70 to 72 °C.

Regarding `CNCc1cc(C(=O)c2cccs2)cc(C(C)(C)C)c1O`, the melting point was in the range of 128 to 129 °C.

`CCOC(=O)c1nnc2ccc(NC(C)=O)cc2c1O` yielded a melting point of 280 to 281 °C.

For the compound `O=C(NN1CCCCC1)c1nc(-c2ccc(Cl)cc2Cl)c(-c2ccc(Br)cc2)s1`, the melting point was 171 to 173 °C.

Take `CC(C)Oc1c(-c2ccc(S(N)(=O)=O)cc2)cnn(CC(F)(F)F)c1=O`: the melting point lay within 158 to 160 °C.

As to `O=c1cc(N2CCOCC2)nc2n1CC[C@@H](C(F)(F)F)N2`, the melting point stood at 108 °C.

As to `O=[N+]([O-])c1cccc2c3c(cc([N+](=O)[O-])c12)NCC3CCl` (configuration not stated), the melting point is 206 to 207 °C.

As for `CC(=O)CCc1ccc(-c2ccccc2F)cc1`, the melting point came out at 30 °C.

In turn, `Cc1nnc2ccc(-c3cccc(C(F)(F)F)c3)cn12` showed a melting point of 185 to 187 °C.

The compound `CCOC(=O)COc1ccccc1C(=O)Nc1ccccc1Sc1ccccc1-c1nnn[nH]1` registered a melting point of 145 to 146 °C.

In the case of `Cn1c([N+](=O)[O-])cnc1-c1cc(CCC(=O)O)on1`, the melting point was found to be 114 °C.

In the case of `COc1cc(C)c2nc3cccc(OC)c3nc2c1`, the melting point fell in the range of 201 to 202 °C.

For the compound `CC(=O)N1CCC(N(C)S(C)(=O)=O)CC1`, the melting point was found to be 132 °C.

The compound `NC(=O)c1cscc1Br` registered a melting point of 108 to 110 °C.

In the case of `CC(C)(C)c1cc(-c2cncc(C3SC(N4CCOCC4)=NC3=O)c2)ccc1O` (configuration not stated), the melting point was in the range of 231 to 234 °C.

`Cc1cc(OCc2ccccc2)cc(NC(=O)OC(C)C)c1C(=O)O` had a melting point of 137 to 139 °C.

As to `CCOC(=O)C(Cc1ccc(C(=O)C(C)(C)C)cc1)Cc1ccc(C(=O)C(C)(C)C)cc1`, the melting point was 60 to 63 °C.

Compound `CNC(=O)CC=C(CC(C)C)C(=O)OC(C)(C)C` displayed a melting point of 35 to 36 °C.

The compound `CCCCS(=O)(=O)NC1Cc2ccc(C3=NNC(=O)CC3)cc2C1` (single isomer, unassigned; (+)) returned a melting point of 173 to 174 °C.

With `CCCc1c(OCCCCCCc2cc(O)c(O)cc2F)ccc(C(=O)O)c1O`, the melting point was in the range of 110 to 111 °C.

The compound `CC(C)(C)c1ccc(-c2[nH]c3cccc4c3c2CCNC4=O)cc1` displayed a melting point of 243 to 244 °C.

The compound `O=c1c2cc(F)c(N3CCCC3)nc2n(-c2ccc(C(F)(F)F)cc2)c(=O)n1OCc1ccccc1` displayed a melting point of 231 to 233 °C.

With `CCCc1c(OCCCOc2cc(OCc3ccccc3)c(-c3ccc(F)cc3)cc2CC)cccc1Oc1cc(F)ccc1C(=O)OC`, the melting point lay within 77 to 78 °C.

`COc1ccc(C(O)Cc2c(Cl)cncc2Cl)c2c1OC(C)(C)C2` (configuration not stated) gave a melting point of 100 to 104 °C.

`CN1C(=O)CC[C@]2(C)c3ccc(-c4cnc5ccccc5c4)cc3CC[C@@H]12` yielded a melting point of 180 to 185 °C.

On to `COC(=O)c1ccc(Oc2cc3c(cc2C)C(C)(C)CCC3(C)C)cc1`, for which the melting point was in the range of 133 to 135 °C.

`Cc1ccc(P(=O)(C(=O)c2c(C)cc(C)cc2C)C(=O)c2c(C)cc(C)cc2C)cc1` showed a melting point of 151 to 152 °C.

With `O=[PH]1Oc2ccccc2-c2ccccc21` (configuration not stated), the melting point is 116 °C.

Compound `Cc1ccc(S(=O)(=O)N2CCCC(CCl)C2)cc1` (configuration not stated) came in with a melting point of 100 to 102 °C.

`Nc1cccc([C@H]2C[C@H]2NC(=O)Nc2ccc(Cl)cn2)c1` (racemic) came in with a melting point of 178 °C.

`COCC(Cl)C(=O)Nc1c(C(=O)CC(=O)Nc2nccs2)cccc1C(F)(F)F` (configuration not stated) registered a melting point of 190 °C.

Compound `CC(C)CC[C@H](O)[C@H](CC1CCCCC1)NC(=O)[C@H](Cc1c[nH]cn1)NC(=O)OC(C)(C)C` had a melting point of 96 to 100 °C.

For `CCCc1c(OCCCOc2ccc([N+](=O)[O-])cc2)ccc(C(C)=O)c1O`, the melting point is 98 °C.

In turn, `CCCCNc1nc(C)c(C(=O)c2ccc(Cl)c([N+](=O)[O-])c2)s1` registered a melting point of 125 to 128 °C.

`Cc1c(F)c(F)cc2c1c(=O)c(C(=O)O)cn2C1CC1` displayed a melting point of 294 to 298 °C.

For `CCOc1ccccc1OCC1(O)CCN(Cc2ccccc2)C1` (configuration not stated), the melting point lay in the range of 56.5 to 59 °C.

For the compound `COc1cc(C(=O)Cl)ccc1NC(=O)c1ccccc1-c1ccccc1`, the melting point lay in the range of 121 to 123 °C.

`Cc1cc(-c2cnn3c(C(F)(F)F)cc(-c4ccc(C(F)(F)F)c(OCC(F)(F)F)c4)nc23)ccn1`: the melting point was determined as 201 °C.

Compound `COc1cc(OC)cc(N2CCN(C(=O)N(C)c3cc(C(C)OC)c(C)nc3OC)CC2)c1` (configuration not stated) gave a melting point of 117 to 119 °C.

Compound `COc1cccc(C(=O)c2sc3cc(OC)ccc3c2-c2ccccc2)c1` showed a melting point of 101 to 103 °C.

The compound `CN(C(=O)Nc1nc(OCC(F)(F)F)cc(OCC(F)(F)F)n1)c1ccc(Br)cc1` registered a melting point of 110 to 111 °C.

The compound `CC(=O)C(=NNc1cccc(C)c1)Sc1ccc(Cl)cc1` displayed a melting point of 112 to 114 °C.

Regarding `COc1ccnc(CS(=O)c2nc3cc4c(cc3[nH]2)OC(F)(F)O4)c1` (configuration not stated), the melting point fell in the range of 184 to 185 °C.

As for `CN1C(=O)Cc2cnc(N3CCN(C(c4ccccc4)c4ccccc4)CC3)nc21`, the melting point was in the range of 75 to 80 °C.

`O=S1N=C(NCCCN(Cc2ccc(F)cc2)c2ccccn2)C(NCc2ccncc2)=N1` (configuration not stated) had a melting point of 160 to 163 °C.

The compound `O=C(O)COc1nc2cc(Cl)c3cccnc3c2o1` yielded a melting point of 214 to 215 °C.

Regarding `COC(=O)c1ccc(Cc2cn(C/C=C/c3ccc4ccc(Cl)cc4n3)c3ccc([N+](=O)[O-])cc23)c(OC)c1`, the melting point was 158 to 160 °C.

Consider `COc1ccc(/C=C/C(=O)c2ccc(C(=O)O)cc2)c(-c2cccs2)c1`, for which the melting point is 209 to 211 °C.

As for `Cc1cc2cn[nH]c2c(C(=O)NC2(C3CC3)CC2)c1NC(=O)c1cc(Br)nn1-c1ncccc1Cl`, the melting point fell in the range of 170 to 173 °C.

`COc1cc2nc3c(c(-c4cc(OC)c(O)c(OC)c4)c2cc1OC)C(=O)OC3` showed a melting point of 247 to 248 °C.

`Nc1nccnc1-c1cc(Cl)cc(Cl)c1Cl` returned a melting point of 142 to 143 °C.

The compound `Cc1cc(N)cc(C)c1Oc1ccc(O)c(C(C)C)c1` displayed a melting point of 180 to 181 °C.

With `ClC=C(c1ccc(Cl)cc1)c1ccc(Cl)cc1`, the melting point lay within 65 to 67 °C.

For the origin of these results see a melting point compilation (Tetko et al.; mined from patent text by program, amines drawn as free bases though some values may be those of a salt).
